Our source for the GI50 and TGI values is PubChem BioAssay (NCI).

The structures appear in SMILES notation.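 Values below derive from 48-hour exposures of cells grown in 96-well plates, with endpoints linearly interpolated between the two concentrations bracketing the appropriate inhibition level. The concentration for 50% growth inhibition is given as GI50. TGI denotes the concentration required for complete inhibition of growth.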 *1 amine or outer side, *2 acyl side, *3 side chain or, on linkers, in order; H or OH if unused. Where a SMILES comes first, the peptide text is derived from it. Bridges are numbered along the chain shown (N, C = ends). [ ]: non-standard residue; d: D form. The star is where a group is joined. Phe(3-Me) = Cc1cccc(C[C@H](N)C(=O)O)c1; NH(4-Cl-2-F-phenyl) = Fc1cc(Cl)ccc1N*; Pro(4R-Me) = C[C@H]1CN[C@H](C(=O)O)C1; Hyp = O=C(O)[C@@H]1C[C@@H](O)CN1; aThr = C[C@H](O)[C@H](N)C(=O)O; Pip = O=C(O)[C@@H]1CCCCN1; CO = O=C([*:1])[*:2]

Some test systems named below: IGROV1 ovarian; M14 melanoma; SNB-19 CNS; COLO 205 colon; LOX IMVI melanoma; HOP-92 NSCLC; HT29 colon; PC-3 prostate; SF-268 CNS; SK-MEL-28 melanoma.
Holding throughout (experiment): NCI-60 cell line screen, 48 h

As to `O=C(CNC(=O)c1cccc2ccccc12)Nc1ccccc1Oc1ccccc1`, the GI50 with IGROV1 ovarian was 0.91 µM; with M14 melanoma it was 0.278 µM; with SNB-19 CNS, 0.461 µM; in the assay with COLO 205 colon it was 0.308 µM; in the assay with LOX IMVI melanoma it was 0.307 µM; with HOP-92 NSCLC, 2.22 µM. In addition, the GI50 in the assay with HT29 colon is 0.29 µM; in the assay with PC-3 prostate, 0.304 µM; in the assay with SF-268 CNS, 0.435 µM; in the assay on SK-MEL-28 melanoma it was 0.813 µM. Also, the TGI in the assay on IGROV1 ovarian is above 10 µM; in the assay on M14 melanoma, above 10 µM; with SNB-19 CNS, above 10 µM; in the assay on COLO 205 colon, 1.14 µM; with LOX IMVI melanoma, above 10 µM; with HOP-92 NSCLC it was above 10 µM. In addition, the TGI in the assay with HT29 colon is 1.07 µM; in the assay on PC-3 prostate it was above 10 µM; in the assay on SF-268 CNS, above 10 µM; with SK-MEL-28 melanoma it was above 10 µM.
As to `Fc1ccc(-c2nnc3sc(-c4cccc(Cl)c4)nn23)cc1Cl`, the GI50 in the assay with IGROV1 ovarian is above 100 µM; in the assay on M14 melanoma, above 100 µM; in the assay with SNB-19 CNS, above 100 µM; with COLO 205 colon, above 100 µM; with LOX IMVI melanoma, above 100 µM; with HOP-92 NSCLC, 33.7 µM. The GI50 in the assay with HT29 colon, in the assay with PC-3 prostate, in the assay on SF-268 CNS and in the assay on SK-MEL-28 melanoma was above 100 µM each time. Further, the TGI was above 100 µM with IGROV1 ovarian; above 100 µM with M14 melanoma; above 100 µM with SNB-19 CNS; above 100 µM with COLO 205 colon; above 100 µM in the assay on LOX IMVI melanoma; 89.6 µM with HOP-92 NSCLC. Also, the TGI in the assay on HT29 colon, with PC-3 prostate, in the assay with SF-268 CNS and with SK-MEL-28 melanoma was above 100 µM throughout.
For `CCc1ccc(CCC(=O)Nc2ncc(Cc3ccccc3)s2)o1`, the GI50 was 3.24 µM with IGROV1 ovarian; 0.876 µM in the assay on M14 melanoma; 3.92 µM with SNB-19 CNS; 2.28 µM in the assay with COLO 205 colon; 6 µM in the assay with LOX IMVI melanoma; 18.3 µM in the assay on HOP-92 NSCLC. Moreover, the GI50 in the assay on HT29 colon was 1.02 µM; with PC-3 prostate it was 2.74 µM; in the assay on SF-268 CNS it was 8.64 µM; with SK-MEL-28 melanoma, 9.11 µM. In addition, the TGI in the assay on IGROV1 ovarian, with M14 melanoma, with SNB-19 CNS, in the assay on COLO 205 colon, in the assay on LOX IMVI melanoma and in the assay on HOP-92 NSCLC was above 100 µM in each case. Besides, the TGI in the assay with HT29 colon, in the assay with PC-3 prostate, in the assay on SF-268 CNS and with SK-MEL-28 melanoma was above 100 µM each time.
`O=C(N/N=C/c1ccc(O)cc1O)c1ccc(Nc2ccnc(C(F)(F)F)c2)cc1`: the GI50 is 21.6 µM with IGROV1 ovarian; above 100 µM with M14 melanoma; 14 µM with SNB-19 CNS; 7.61 µM in the assay with COLO 205 colon; 8.31 µM with LOX IMVI melanoma; 15 µM in the assay on HOP-92 NSCLC. Also, the GI50 in the assay with HT29 colon is above 100 µM; with PC-3 prostate, above 45.1 µM; in the assay with SF-268 CNS it was 0.156 µM; with SK-MEL-28 melanoma it was 7.5 µM. In addition, the TGI with IGROV1 ovarian was above 100 µM; in the assay with M14 melanoma it was above 100 µM; with SNB-19 CNS, above 56.5 µM; in the assay with COLO 205 colon, above 100 µM; in the assay with LOX IMVI melanoma it was above 100 µM; in the assay on HOP-92 NSCLC it was above 75.6 µM. For the same molecule, the TGI in the assay with HT29 colon was above 100 µM; in the assay with PC-3 prostate, above 100 µM; in the assay on SF-268 CNS it was 33.3 µM; in the assay with SK-MEL-28 melanoma, above 100 µM.
As to `Cc1cccc(C[C@H](NC(=O)Nc2ccc(Cl)cc2F)C(=O)N[C@@H]2C(=O)N3C[C@H](O)C[C@H]3C(=O)N3CCCC[C@H]3C(=O)N[C@@H](C)C(=O)N3C[C@H](C)C[C@H]3C(=O)O[C@H]2C)c1` ({NH(4-Cl-2-F-phenyl)-CO}-[Phe(3-Me)][aThr][Hyp][Pip]A[Pro(4R-Me)]; ester 2-C), the GI50 in the assay with IGROV1 ovarian is 0.919 µM; in the assay with M14 melanoma, 0.487 µM; in the assay on SNB-19 CNS, 0.381 µM; in the assay with COLO 205 colon, 0.344 µM; with LOX IMVI melanoma, 0.67 µM; in the assay with HOP-92 NSCLC, 0.525 µM. The GI50 in the assay on HT29 colon was 0.547 µM; in the assay with PC-3 prostate it was 0.365 µM; in the assay on SF-268 CNS it was 0.499 µM; with SK-MEL-28 melanoma, 0.728 µM. Moreover, the TGI in the assay with IGROV1 ovarian was found to be 2.98 µM; with M14 melanoma, 2.19 µM; in the assay with SNB-19 CNS it was 11.3 µM; with COLO 205 colon it was 1.36 µM; with LOX IMVI melanoma, 2.16 µM; in the assay with HOP-92 NSCLC, 3.14 µM. Further, the TGI with HT29 colon was determined as 3.06 µM; in the assay with PC-3 prostate it was 1.85 µM; with SF-268 CNS, 4.02 µM; with SK-MEL-28 melanoma, 2.08 µM.
As for `CNC1NC(=O)c2ccccc2N1Cc1ccc(F)cc1` (stereo not given), the TGI in the assay on IGROV1 ovarian, with M14 melanoma, in the assay with SNB-19 CNS, with COLO 205 colon, in the assay with LOX IMVI melanoma and in the assay on HOP-92 NSCLC was above 100 µM each time. Moreover, the TGI with HT29 colon, in the assay with PC-3 prostate, in the assay on SF-268 CNS and in the assay with SK-MEL-28 melanoma was above 100 µM in each case.
On to `COc1cc2c(OC)c(c1)CCCC1=CC(=O)C=C(CCC2)C1=O`, for which the TGI in the assay with IGROV1 ovarian is above 100 µM; in the assay with M14 melanoma, above 64.5 µM; in the assay with SNB-19 CNS it was above 100 µM; in the assay on COLO 205 colon it was above 31.6 µM; with LOX IMVI melanoma it was 31.1 µM; in the assay on HOP-92 NSCLC it was 36.6 µM. Moreover, the TGI in the assay on HT29 colon, in the assay on PC-3 prostate, with SF-268 CNS and in the assay on SK-MEL-28 melanoma was above 100 µM each time.
For `COc1cc(-c2cn(-c3ccc(Cl)cc3)c(=O)[nH]2)cc(OC)c1OC`, the GI50 in the assay with IGROV1 ovarian, in the assay with M14 melanoma, in the assay on SNB-19 CNS, in the assay with COLO 205 colon, in the assay with LOX IMVI melanoma and with HOP-92 NSCLC was above 100 µM throughout. Further, the GI50 with HT29 colon, in the assay on PC-3 prostate, in the assay on SF-268 CNS and with SK-MEL-28 melanoma was above 100 µM throughout. In addition, the TGI with IGROV1 ovarian, in the assay with M14 melanoma, with SNB-19 CNS, with COLO 205 colon, with LOX IMVI melanoma and with HOP-92 NSCLC was above 100 µM each time. The TGI in the assay with HT29 colon, with PC-3 prostate, in the assay on SF-268 CNS and with SK-MEL-28 melanoma was above 100 µM in each case.
